{"source": "paper PMC9656482", "about": "“In Vitro and In Vivo Biological Activity of Ruthenium 1,10-Phenanthroline-5,6-dione Arene Complexes” (International Journal of Molecular Sciences, 2022)", "key": {"[1]": {"test_system": "HCT116 colorectal carcinoma cell line", "assay": "MTS antiproliferative assay, HCT116", "format": "cell-based, human", "quoted_text": "Normal dermal human fibroblasts, colorectal carcinoma cell line HCT116 and ovarian carcinoma cell line A2780 were acquired from ATCC (Manassas, VA, USA). […] Fibroblasts and HCT116 cells were cultured in Dulbecco’s modified Eagle medium (DMEM, Thermo Fisher Scientific) and A2780 cell line was cultured on Roswell Park Memorial institute 1640 (RPMI-1640, Thermo Fisher Scientific). Both media were supplemented with 10% (v/v) fetal bovine serum (FBS, Thermo Fisher Scientific) and a mixture of 100 U/mL penicillin and 100 mg/mL streptomycin. The supplemented media are referred to from this point on as DMEM or RPMI for simplicity. […] All experiments underwent at 37 °C, 5% (v/v) CO2 and 99% (v/v) humidity in the dark.\nCells were seeded in a 96-well plate in a density of 7500 cells/well, and after 24 h was submitted to a concentration range between 0.1–50 µM of complexes JHOR10 and JHOR11. DMSO with a 0.1% (v/v) concentration was used as vector control and cisplatin was used as positive control in all replicates. After 48 h incubation, cellular viability was inferred with the Cell Titer 96® Aqueous One solution cell proliferation assay (Promega, Madison, WI, USA) according to the manufacturer’s instructions and procedures previously described [18, 40]. The absorbance of the produced Formazan was quantified with a Tecan microplate reader, Infinite M200 (Tecan, Mannedorf, Switzerland) and the analysis of the dose–response curves to determine the relative IC50 was performed with GraphPad Prism 8.2.1 software (GraphPad Software, La Jolla, CA, USA)."}, "[2]": {"test_system": "doxorubicin-resistant HCT116 (HCT116-Dox)", "details": "read-out: Relative IC50, HCT116-Dox; 48 h incubation, MTS", "procedure": "(§1) The cytotoxic potential of the complexes was evaluated by assessing their viability using the 3-(4,5-dimethylthiazol-2-yl)-5-(3-carboxymethoxyphenyl)-2-(4-sulfophenyl)-2H tetrazolium, inner salt (MTS) colorimetric assay in three tumor cell lines—ovarian carcinoma, A2780, colorectal carcinoma, HCT116, and colorectal carcinoma resistant to doxorubicin, HCT116-Dox and in normal human primary dermal fibroblasts (Figure 1 and Figure S7).\n(§2) Normal dermal human fibroblasts, colorectal carcinoma cell line HCT116 and ovarian carcinoma cell line A2780 were acquired from ATCC (Manassas, VA, USA). HCT116 cell lines resistant to doxorubicin (HCT116-Dox) were derived from the HCT116 cell line, as previously described. Fibroblasts and HCT116 cells were cultured in Dulbecco’s modified Eagle medium (DMEM, Thermo Fisher Scientific) and A2780 cell line was cultured on Roswell Park Memorial institute 1640 (RPMI-1640, Thermo Fisher Scientific). Both media were supplemented with 10% (v/v) fetal bovine serum (FBS, Thermo Fisher Scientific) and a mixture of 100 U/mL penicillin and […] streptomycin. The supplemented media are referred to from this point on as DMEM or RPMI for simplicity."}, "[3]": {"test_system": "normal human dermal fibroblasts", "details": "read-out: Relative IC50, Fibroblasts; 48 h incubation, MTS", "procedure": "as §1, §2"}, "[4]": {"assay": "Stability in DMSO-d6-D2O solution by 1H NMR", "format": "physicochemical", "details": "DMSO-d6-D2O 3:7 (v/v), 110 mM chloride, 48 h", "procedure": "To evaluate the stability of complexes in a cell culture medium, powdered complexes were first solubilized in DMSO and then immediately in DMEM, in order to guarantee that no more than 0.1% (v/v) DMSO was present in the medium. […] In addition, the stability of the complexes in solution was investigated by ^1H NMR spectroscopy. The ruthenium complexes were dissolved in DMSO-d6-D2O, in a 3:7 ratio (v/v) with a 110 mM chloride concentration, and the ^1H NMR spectra was recorded immediately and after 48 h. […] This observation is in agreement with the M–Cl aquation processes described for several metallic compounds, such as cisplatin [23]. After 48 h, the ^1H NMR spectrum of JHOR10 was unchanged.\nThe stability of complexes was evaluated in DMEM (Dulbecco’s modified Eagle’s medium). Powdered complexes JHOR10 and JHOR11 were solubilized in DMSO and then immediately diluted in DMEM without phenol red (Thermo Fisher Scientific, Waltham, MA, USA) to a final concentration of 100 µM, assuring that the final concentration of DMSO was not higher than 0.1% (v/v). The UV-visible spectrum was measured after an incubation at 37 °C for 24 or 48 h (DMEM) in a wavelength range between 260 and 800 nm, using a quartz cuvette with 1 cm path length. A total of 2 mg of each compound was dissolved in DMSOd6-D2O 3:7 (v/v) 110 mM chloride concentration (NaCl), and the ^1H NMR were recorded at 0 h and 48 h on a Bruker Avance III 400 MHz."}, "[5]": {"test_system": "A2780 cells", "assay": "Apoptosis, Annexin V-Alexa Fluor 488/propidium iodide double staining", "format": "cell-based, human", "details": "A2780, 48 h, IC50 of the complex", "procedure": "To understand if the loss of cell viability of an A2780 cell incubated with JHOR11 is due to cell apoptosis, cells were incubated with the IC50 of the complex and then double-stained with Annexin V, conjugated with AlexaFluor 488 and with propidium iodide (PI) to discriminate between live cells (unstained), cells in initial apoptosis (green-stained cells), cells in late apoptosis (double-stained cells) and cells in necrosis (red-stained cells).\nThe double staining of the A2780 cells incubated with JHOR11 for apoptosis evaluation followed procedures previously described. Briefly, A2780 cells were seeded on 6-well plates in a density of 2 × 10^5 cells/well, and incubated for 48 h with IC50 JHOR11, 0.1% (v/v) DMSO as vector control, and 3.5 µM cisplatin as positive control. Cells were then detached from the wells and double stained using the dead cell apoptosis kits with Annexin V for flow cytometry (Thermo Fisher Scientific) according to manufacturer’s instructions. The percentage of live cells (unstained), cells in initial apoptosis (stained with annexin V-Alexa Fluor 488), cells in late apoptosis (double stained with annexin V-Alexa Fluor 488 and propidium iodide) or cells in necrosis (stained with propidium iodide) was quantified using an Attune acoustic focusing flow cytometer and respective software (Thermo Fisher Scientific)."}, "[6]": {"test_system": "A2780 cells", "assay": "Trypan blue exclusion method", "format": "cell-based, human", "details": "A2780, 48 h", "procedure": "A2780 cells were exposed for 48 h to the IC50 of JHOR11, and to a concentration 10 times higher and 10 times lower the IC50, and the live (transparent) and dead (blue) cells that remained adherent or in the supernatant were counted (Figure 6). A2780 cells were also incubated with 0.1% (v/v) DMSO as a vector control, and 0.1 µM doxorubicin as positive control (Supplementary Information, Figure S8).\nA2780 cells were seeded on a 24-well culture plate at a density of 37,500 cells/well. After 24 h to assure cell adherence, the medium was replaced by fresh RPMI supplemented with 0.1% (v/v) DMSO, 0.1 µM Doxorubicin or JHOR11 complex in three different concentrations: 1/10 IC50, IC50 or 10 × IC50. After 8 h, 24 h or 48 h incubation, the supernatant was removed and mixed with trypan blue (Thermo Fisher Scientific) to a final concentration 0.1% (w/v). In parallel, cells were detached from the well, centrifuged at 500× g and pellet was resuspended in 0.1% (w/v) Trypan blue. The number of viable cells and cells with compromised membrane (stained with blue) in both fractions were counted in a haemocytometer (Hirschmann, Eberstadt, Germany) and a CXX41 inverted microscope (Olympus, Tokyo, Japan)."}, "[7]": {"test_system": "A2780 cells", "assay": "Autophagy assay (flow cytometry)", "format": "cell-based, human", "details": "A2780, 48 h, IC50 of JHOR11", "procedure": "To understand if the cytotoxic effect of the complex is correlated with autophagy, A2780 cells were exposed for 48 h to the IC50 of complex JHOR11. They were then incubated with an autophagic fluorescent dye (Abcam) that becomes highly fluorescent when incorporated into pre-autophagosomes, autophagosomes or autophagolysosomes. Cells were also incubated with DMSO 0.1% (v/v) for vehicle control, and with 1.5 μM rapamycin and 3.5 μM cisplatin as positive controls.\nThe fluorescence quantification and percentage of autophagic cells was performed on an Attune acoustic focusing flow cytometer and respective software (Thermo Fisher Scientific)."}, "[8]": {"test_system": "chicken embryo", "assay": "Ex ovo chorioallantoic membrane (CAM) assay", "quoted_text": "Each chicken embryo was exposed to the IC50 of JHOR11 and 0.1% (v/v) DMSO as vector control and the number of vessels in each treated region was counted at 0 h, and after 24 h and 48 h incubation at 37 °C, as previously described [39].\nThe CAM assay was performed as previously described [18, 39, 43]. Fertilized eggs with 48 h incubation were opened and stabilized for 24 h in white weighing boats. Two silicone rings were positioned in each embryo and 40 mL IC50 JHOR11 in phosphate-buffered saline (PBS) or 0.1% (v/v) DMSO in PBS, as vector control, were placed in each o-ring. The region delimited by each o-ring was photographed at 0 h, 24 h, 48 h with a digital USB microscope camera (Opti-Tekscope OT-V1). The newly formed veins were counted using ImageJ as previously described [37], and values were presented after normalization with the values obtained for control sample."}}}
{"smiles": "Cc1ccc(C(C)C)cc1.F[P-](F)(F)(F)(F)F.O=C1C(=O)c2cccnc2-c2ncccc21.[Cl][Ru+]", "note": "[JHOR11]", "values": [{"measurement": "IC50", "setting": "[1]; 48 h incubation, MTS, read-out: Relative IC50, HCT116", "result": "5.5 ± 0.3", "unit": "µM"}, {"measurement": "selective index in HCT116", "setting": "[1]; relative to fibroblasts", "result": 8.1}, {"measurement": "IC50", "setting": "[2]", "result": "6.8 ± 0.3", "unit": "µM"}, {"measurement": "IC50", "setting": "[3]", "result": "44.5 ± 2.2", "unit": "µM"}, {"measurement": "stability in solution by 1H NMR after 48 h", "setting": "[4]", "result": "the majority of the complex remained intact"}, {"measurement": "percentage of apoptotic cells", "setting": "[5]", "result": 3, "unit": "%"}, {"measurement": "cells in the supernatant at 1/10 IC50 (Trypan blue)", "setting": "[6]; 1/10 IC50", "result": "exclusively live cells"}, {"measurement": "cells in the supernatant with increasing concentration (Trypan blue)", "setting": "[6]; 1/10 IC50, IC50, 10 × IC50", "result": "increased percentage of cells in the supernatant"}, {"measurement": "percentage of cells with autophagic events", "setting": "[7]", "result": "48.8 ± 7.5", "unit": "%"}, {"measurement": "newly formed vessels (angiogenesis)", "setting": "[8]; IC50 of JHOR11, 24 h and 48 h, versus DMSO-treated regions", "result": "no anti- or pro-angiogenic effects"}, {"measurement": "death of chicken embryos", "setting": "[8]; six embryos, 48 h, IC50 of JHOR11", "result": "did not induce the death"}]}
